pEC50, pIC50: −log10 of the molar value. A value given as a limit tells only on which side of the number the result lay.

One experiment has as its target T1, human GLP-1R receptor (Homo sapiens, UniProt P43220, L260F).
T1 construct: expressed in transfected cells; host or cells: CHO-K1 (ATCC CCL-61)
Description: CHOK1 GLP-1R cAMP assay (HTRF). It is filed as cell-based. Conditions: CHO-K1 cells stably expressing human GLP-1R. How it is done: A cell line stably expressing the human GLP-1R receptor (NM_002062.5, including the naturally-occurring variant Leu260Phe) in a CHO-K1 (ATCC® CCL-61™) was used for assay.
GLP-1 receptor mediated agonist activity was determined in a cell-based assay measuring cyclic adenosine monophosphate (cAMP) levels in cells using Homogeneous Time-Resolved Fluorescence (HTRF) cAMP detection kit (CisBio catalog #62AM4PEC, cAMP Gs Dynamic range kit). The cAMP detection method is based on a competitive immunoassay, in which cAMP produced by the cells and cAMP labeled with the dye d2 compete for binding to a Europium-Cryptate-labeled anti-cAMP antibody. The specific HTRF signal is inversely proportional to the concentration of cAMP.
Compounds were added to individual well in 384 well-assay plates (Greiner #784076) using an Echo (LabCyte) dispenser from 10 mM stocks. Varying concentration of compounds were added to wells, and DMSO was used to normalize each well to a volume of 100 nL. A dose response curve of GLP-1(7-36)NH2 (Bachem H-6795) was included in each run. 5 μL of cAMP concentration response standards are applied in specified wells in the assay plates. Cryo-preserved cells are thawed and resuspended in assay buffer pre-heated to 37° C. (20 mM 2-[4-(2-hydroxyethyl)piperazin-1-yl]ethanesulfonic acid (HEPES) pH 7.4, lx Hank's Balanced Salt Solution (HBSS, Life Technologies #14065) supplemented with 0.1% (w/v) bovine serum albumin (Sigma, A-7030)). Cells were centrifuged at 250*g for 5 min at rt, and resuspended in room tempered assay buffer to a final density of 0.16*10^6 cell/mL, to deliver 800 cells/well. 5 μL of assay buffer with 1 mM 3-isobutyl-1-methylxanthin (IBMX; Sigma cat I-7018) was dispensed per well in assay plates using a multidrop combi (Thermo Scientific) subsequently 5 μL of cell suspension was distributed to relevant wells in the assay using a multidrop dispenser. Assay plates were incubated 20 min at rt.
Detection reagents, Europium-Cryptate-labeled anti-cAMP antibody and cAMP labeled with the dye d2, are diluted in lysis buffer, provided by the manufacturer. 5 μL of each detection reagent is supplemented to each assay well using a multidrop dispenser. Assay plates are incubated in the dark for at least one h. The HTRF signal is measured using the HTRF module (excitation: 337 nm, emission A: 665 nm and emission B: 620 nm) in Pherastar FSX (BMG Labtech).
Raw data were converted to pM cAMP using the cAMP standard curve included in each run. Converted data were further analyzed in Genedata Screener (Genedata) and EC50 determinations were made from agonist dose-response curves analyzed with a curve fitting program using a 4-parameter logistic dose response equation (Equation y=A+((B−A)/1+((C/x)^D))) where A is no stimulation, B is full stimulation, C is the EC50 and D is the Hill slope). The percent effect was determined relative to a saturating concentration of a full GLP-1R agonist (GLP-1(7-36)NH2 has 100% effect in this assay setup).
Background: cAMP levels reflect the balance of adenylyl cyclase and phosphodiesterase activity.

Another experiment concerns the target T2, GLP-1R (Homo sapiens, UniProt P43220).
T2 construct: host or cells: EndoC-βH1
Description: EndoC cAMP accumulation assay (HTRF, EndoC-βH1 cells). It is filed as cell-based. Conditions: EndoC-βH1 human pancreatic β cell line. The source says:
EndoC cAMP Accumulation Assay
A HTRF cAMP assay (cAMP Gs dynamic kit; CisoBio Cat #62AM4PEJ) was used to identify agonists of GLP-1R in a pancreatic insulinoma cell line (EndoC-PH1). […] EndoC-βH1 cells have detectable GLP-1R messenger ribonucleic acid (mRNA) as detected by quantitative polymerase chain reaction (qPCR). […] The EndoC-βH1 cell line is a valid model of human beta cells and applicable for screenings to identify novel drug target candidates (Mol. Metab., 2018, 8, 144-157). CisBio HTRF cAMP kits are based on a competitive immunoassay using cryptate-labelled anti-cAMP antibody and d2-labeled cAMP. The detection kit is intended for the direct quantitative determination of cAMP. The specific signal (i.e. energy transfer) is inversely proportional to the concentration of cAMP in the standard or sample. Test compounds (10 mM in DMSO) were diluted into assay buffer (HBSS (Sigma #H8264) supplemented with 25 mM HEPES (Gibco #15630, pH 7.4), 0.1% BSA (Sigma #A3059) and 0.5 mM IBMX (Sigma #I7018) included fresh on the day of the assay) into 96 well U-bottom plates (Greiner #650201). Diluted compounds were transferred to ECHO source polypropelene plates (Labcyte #P-05525) and dose response curves were dispensed acoustically using ECHO 550 into black shallow-well u-bottom 384-well HTRF Assay Plates (Corning 4514).
Cryovials of EndoC-H1 (supplied at 1×10e^7 cells/vial) were used directly for screening. The cryovials and were removed from N2(l) and thawed rapidly in a 37° C. water bath. The cells were resuspended in assay buffer and centrifuged at 300 g for 5 min. Cells were resuspended in assay buffer at the appropriate concentration, typically at 12e5 cells per mL (3000 cells per well, dependent on cell batch) and 2.5 μL diluted cells were added to all wells of destination plate by Multidrop combi reagent dispenser (Thermofisher). The plates were incubated at rt for 30 min. The assay was stopped by adding 2.5 μL anti-cAMP cryptate solution to all wells and 2.5 μL cAMP-d2 solution (both diluted 1:20 in lysis buffer) to columns 1-22 by Combi drop. A volume of 2.5 μL cAMP-d2 solution was added to wells E23 to P24 and 2.5 μL lysis buffer added to wells A23 to D24 by multichannel pipette. The plates were incubated at rt for 1 h and read on an Envision plate reader using excitation wavelength of 320 nm and emission of 590 nm and 660 nm.
Raw data from Envision is converted to % DeltaF according to the manufacturer's instructions. Dose response curves are analysed via 4-Parameter Logistical Analysis and assay plate Z′ values obtained. Samples are graphed as percentage (%) activation plots compared to GIP (1-42, Bachem H-5645) with assay window defined by negative control as basal cell cAMP levels and positive control are defined by maximum GIP (82.5 nM) signal. GLP-1 (7-36 amide, Bachem H-6795) dose response curve was included on all plates.

The target in experiment [1] is T3, human phosphodiesterase-3A (Homo sapiens, UniProt Q14432).
T3 construct: host or cells: Sf9 (Spodoptera frugiperda)
The experiment can be described thus: PDE3 assay (formation of 5'AMP from cAMP, SPA). It is filed as biochemical. Conditions: human recombinant enzyme expressed in Sf9 cells. How it is done:
Evaluation of the effects of compounds on the activity of the human phosphodiesterase-3A is quantified by measuring the formation of 5′AMP from cAMP using a human recombinant enzyme expressed in a clonal isolate of Spodoptera frugiperda cells (Sf9) cells.
The test compound, reference compound or water (control) are added to a buffer containing 40 mM tris(hydroxymethyl)aminomethane (Tris)/HCl (pH 7.4) and 8 mM MgCl2, 450 nMcAMP and 0.25 μCi [3H]cAMP.
Thereafter, the reaction is initiated by addition of the enzyme (about 1 U) and the mixture is incubated for 20 min at 22° C.
For basal control measurements, the enzyme is omitted from the reaction mixture.
Following incubation SPA beads are added. After 30 min at 22° C. under shaking, the amount of [^3H]5′AMP is quantified with a scintillation counter (Topcount, Packard).
The results are expressed as a percent inhibition of the control enzyme activity. The standard inhibitory reference compound is milrinone (CAS number 78415-72-2), which is tested in each experiment at several concentrations to obtain an inhibition curve from which its IC50 value is calculated.

T2 sequence (P43220 24-463): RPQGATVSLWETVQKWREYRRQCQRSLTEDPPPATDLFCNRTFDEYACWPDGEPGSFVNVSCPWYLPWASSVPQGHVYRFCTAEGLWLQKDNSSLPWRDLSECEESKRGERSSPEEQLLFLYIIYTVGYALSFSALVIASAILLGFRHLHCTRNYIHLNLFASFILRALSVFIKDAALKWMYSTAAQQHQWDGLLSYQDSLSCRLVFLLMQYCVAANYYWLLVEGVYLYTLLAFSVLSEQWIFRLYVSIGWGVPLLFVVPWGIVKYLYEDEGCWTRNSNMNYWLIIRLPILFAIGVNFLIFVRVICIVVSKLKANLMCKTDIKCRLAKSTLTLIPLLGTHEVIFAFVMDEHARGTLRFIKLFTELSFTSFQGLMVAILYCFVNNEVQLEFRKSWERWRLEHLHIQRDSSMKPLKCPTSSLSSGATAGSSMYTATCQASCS
T1 sequence (P43220 24-463 L260F): as the sequence (P43220 24-463) above, with L237F counted along it
T3 sequence (Q14432 whole entry): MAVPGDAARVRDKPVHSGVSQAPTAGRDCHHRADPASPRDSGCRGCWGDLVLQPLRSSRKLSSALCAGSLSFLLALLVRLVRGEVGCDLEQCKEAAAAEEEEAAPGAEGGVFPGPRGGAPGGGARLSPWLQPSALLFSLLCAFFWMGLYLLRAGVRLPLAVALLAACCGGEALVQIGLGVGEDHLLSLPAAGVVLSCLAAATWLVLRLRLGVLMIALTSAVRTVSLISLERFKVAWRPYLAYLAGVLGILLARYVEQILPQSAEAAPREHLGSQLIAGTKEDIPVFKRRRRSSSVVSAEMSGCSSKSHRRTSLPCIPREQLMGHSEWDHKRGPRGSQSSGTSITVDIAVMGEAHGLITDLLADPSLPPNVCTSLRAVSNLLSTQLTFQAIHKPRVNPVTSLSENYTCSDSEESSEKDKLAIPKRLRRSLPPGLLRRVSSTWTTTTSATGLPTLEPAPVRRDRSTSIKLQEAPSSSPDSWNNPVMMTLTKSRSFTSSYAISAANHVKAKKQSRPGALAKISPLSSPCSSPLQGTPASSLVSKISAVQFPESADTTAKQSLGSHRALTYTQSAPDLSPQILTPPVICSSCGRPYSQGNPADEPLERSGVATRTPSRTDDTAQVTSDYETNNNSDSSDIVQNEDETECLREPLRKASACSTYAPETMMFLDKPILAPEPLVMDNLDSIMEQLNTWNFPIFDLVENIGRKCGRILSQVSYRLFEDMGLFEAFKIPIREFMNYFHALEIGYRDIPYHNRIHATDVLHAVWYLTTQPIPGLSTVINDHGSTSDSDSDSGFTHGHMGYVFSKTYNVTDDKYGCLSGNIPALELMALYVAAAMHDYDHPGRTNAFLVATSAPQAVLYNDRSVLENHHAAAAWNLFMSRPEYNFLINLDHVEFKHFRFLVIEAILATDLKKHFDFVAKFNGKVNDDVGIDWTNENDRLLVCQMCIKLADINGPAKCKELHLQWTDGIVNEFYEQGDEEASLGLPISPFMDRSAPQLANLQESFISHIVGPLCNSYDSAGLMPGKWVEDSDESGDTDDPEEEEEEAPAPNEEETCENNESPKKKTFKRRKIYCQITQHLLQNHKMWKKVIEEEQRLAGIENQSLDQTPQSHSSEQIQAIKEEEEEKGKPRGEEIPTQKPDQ

By pEC50 is commonly meant the EC50 on a negative log10 scale, so that one unit is a factor of ten. A higher pEC50 goes with a low EC50. One may read the pIC50 as the IC50 on a negative log10 scale, so that one unit is a factor of ten. For the molecule `N#Cc1ccc(COc2cccc(N3CCN(Cc4nc5ccc(C(=O)O)cc5n4C[C@@H]4CCO4)[C@H]4COC[C@H]43)n2)c(F)c1` (racemic) [Example 17, 2-(((4aRS,7aSR)-4-(6-((4-Cyano-2-fluorobenzyl)oxy)pyridin-2-yl)hexahydrofuro[3,4-b]pyrazin-1(2H)-yl)methyl)-1-(((S)-oxetan-2-yl)methyl)-1H-benzo[d]imidazole-6-carboxylic acid], the pEC50 on human GLP-1R receptor was 8.70; at GLP-1R, 7.85. Also, in experiment [1], the pIC50 was 5.46.

As for `N#Cc1ccc(COc2cccc(N3CCN(Cc4nc5c(F)cc(C(=O)O)cc5n4C[C@@H]4CCO4)[C@H]4CC[C@@H]43)n2)c(F)c1` (single isomer, unassigned) [Example 3b, 2-(((1R*,6R*)-5-(6-((4-Cyano-2-fluorobenzyl)oxy)pyridin-2-yl)-2,5-diazabicyclo[4.2.0]octan-2-yl)methyl)-4-fluoro-1-(((S)-oxetan-2-yl)methyl)-1H-benzo[d]imidazole-6-carboxylic acid], the pEC50 on human GLP-1R receptor was 8.96; at GLP-1R it was 8.06. In experiment [1], the pIC50 is 4.96.

As to `COc1cc(C(=O)O)cc2c1nc(CN1CCN(c3cccc(OCc4ccc(C#N)cc4F)n3)[C@H]3CC[C@@H]31)n2C[C@@H]1CCO1` (single isomer, unassigned) [Example 4a, 2-(((1R*,6R*)-5-(6-((4-Cyano-2-fluorobenzyl)oxy)pyridin-2-yl)-2,5-diazabicyclo[4.2.0]octan-2-yl)methyl)-4-methoxy-1-(((S)-oxetan-2-yl)methyl)-1H-benzo[d]imidazole-6-carboxylic acid], the pEC50 at human GLP-1R receptor is 8.40; on GLP-1R, 8.26. Further, the pIC50 in experiment [1] was 5.42.

`COc1cc(C(=O)O)cc2c1nc(CN1CCN(c3cccc(OCc4ccc(C#N)cc4F)n3)[C@H]3CC[C@@H]31)n2C[C@@H]1CCO1` (single isomer, unassigned) [Example 4b, 2-(((1R*,6R*)-5-(6-((4-Cyano-2-fluorobenzyl)oxy)pyridin-2-yl)-2,5-diazabicyclo[4.2.0]octan-2-yl)methyl)-4-methoxy-1-(((S)-oxetan-2-yl)methyl)-1H-benzo[d]imidazole-6-carboxylic acid]: the pEC50 on human GLP-1R receptor is 9.22; at GLP-1R it was 8.52. In experiment [1], the pIC50 was 5.19.

For the molecule `COc1cc(C(=O)O)cc2c1nc(CN1CCN(c3cccc(OCc4ccc(Cl)cc4F)n3)[C@H]3CC[C@@H]31)n2C[C@@H]1CCO1` (single isomer, unassigned) [Example 5b, 2-(((1R*,6R*)-5-(6-((4-Chloro-2-fluorobenzyl)oxy)pyridin-2-yl)-2,5-diazabicyclo[4.2.0]octan-2-yl)methyl)-4-methoxy-1-(((S)-oxetan-2-yl)methyl)-1H-benzo[d]imidazole-6-carboxylic acid], the pEC50 at human GLP-1R receptor is 9.30; at GLP-1R, 8.68. In experiment [1], the pIC50 is below 4.00.

Consider `N#Cc1ccc(COc2cccc(N3CCN(Cc4nc5c(Cl)cc(C(=O)O)cc5n4C[C@@H]4CCO4)[C@H]4CC[C@H]43)n2)c(F)c1` (single isomer, unassigned) [Example 6a], for which the pEC50 at human GLP-1R receptor was 9.22; on GLP-1R, 8.72. Also, the pIC50 in experiment [1] was 5.54.

Consider `N#Cc1ccc(COc2cccc(N3CCN(Cc4nc5c(Cl)cc(C(=O)O)cc5n4C[C@@H]4CCO4)[C@H]4CC[C@H]43)n2)c(F)c1` (single isomer, unassigned) [Example 6c], for which the pEC50 is 8.09 on human GLP-1R receptor and 8.25 at GLP-1R. For the same molecule, in experiment [1], the negative-log IC50 (pIC50) is 5.60.

Take `N#Cc1ccc(COc2cccc(N3CCN(Cc4nc5c(Cl)cc(C(=O)O)cc5n4C[C@@H]4CCO4)[C@H]4CC[C@H]43)n2)c(F)c1` (single isomer, unassigned) [Example 6d]: the pEC50 was 8.46 at human GLP-1R receptor and 8.62 at GLP-1R. In experiment [1], the pIC50 is 5.52.

On to `N#Cc1ccc(COc2cccc(N3CCN(Cc4nc5cc(Cl)c(C(=O)O)cc5n4C[C@@H]4CCO4)[C@H]4CC[C@H]43)n2)c(F)c1` (single isomer, unassigned) [Example 7a], for which the pEC50 on human GLP-1R receptor is 8.03; on GLP-1R it was 8.14. Besides, the pIC50 in experiment [1] was 5.66.

`N#Cc1ccc(COc2cccc(N3CCN(Cc4nc5cc(F)c(C(=O)O)cc5n4C[C@@H]4CCO4)[C@H]4CC[C@@H]43)n2)c(F)c1` (single isomer, unassigned) [Example 9b]: the figures for the pEC50 on human GLP-1R receptor and at GLP-1R were 8.68 and 7.57, respectively. Moreover, in experiment [1], the pIC50 was 5.34.

For `N#Cc1ccc(COc2cccc(C3CCN(Cc4nc5ccc(C(=O)O)cc5n4C[C@@H]4CCO4)CC3)n2)c(F)c1` [Ref Comp B, reference compound], the pIC50 in experiment [1] was 4.96.

Source of the values: patent US20250115612A1, “CERTAIN 2,5-DIAZABICYCLO[4.2.0]OCTANES AND OCTAHYDROFURO[3,4-B]PYRAZINES AS GLP-1 RECEPTOR MODULATORS” (ASTRAZENECA AB, priority 2021, published 2025).
